Calls of active or inactive are those of the source. No cut-off for these calls is given here.
What was measured:
[1] = target: T1, Oxysterols receptor LXR-beta (Rattus norvegicus, UniProt Q62755); test: Transactivation of rat LXRbeta expressed in HEK293FT cells measured after 14 to 18 hrs by dual-luciferase reporter gene assay; assay type: cell-based
T1 sequence (Q62755 whole entry): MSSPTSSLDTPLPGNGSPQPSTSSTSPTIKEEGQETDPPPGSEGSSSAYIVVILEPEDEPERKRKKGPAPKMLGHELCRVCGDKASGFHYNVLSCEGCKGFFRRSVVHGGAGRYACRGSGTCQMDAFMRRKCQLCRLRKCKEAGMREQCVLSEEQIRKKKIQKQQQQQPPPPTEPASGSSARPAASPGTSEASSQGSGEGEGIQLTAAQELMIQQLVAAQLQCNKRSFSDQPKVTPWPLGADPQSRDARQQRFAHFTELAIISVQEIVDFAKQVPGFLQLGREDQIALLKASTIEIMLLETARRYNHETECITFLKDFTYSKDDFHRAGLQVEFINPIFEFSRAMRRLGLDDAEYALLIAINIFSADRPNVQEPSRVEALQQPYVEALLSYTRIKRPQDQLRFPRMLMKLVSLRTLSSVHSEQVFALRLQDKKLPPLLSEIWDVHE

[2] = target: T2, Oxysterols receptor LXR-beta (Rattus norvegicus) (UniProt Q62755); test: Transactivation of rat LXRbeta expressed in HEK293FT cells measured after 14 to 18 hrs by dual-luciferase reporter gene assay relative to T0901317; assay type: cell-based
T2 sequence (whole entry): T1 sequence (Q62755 whole entry)

[3] = target: T3, Oxysterols receptor LXR-alpha (Rattus norvegicus, UniProt Q62685); test: Transactivation of rat LXRalpha expressed in HEK293FT cells co-expressing RXR at 5 uM measured after 14 to 18 hrs by dual-luciferase reporter gene assay; assay type: cell-based
T3 sequence (Q62685 whole entry): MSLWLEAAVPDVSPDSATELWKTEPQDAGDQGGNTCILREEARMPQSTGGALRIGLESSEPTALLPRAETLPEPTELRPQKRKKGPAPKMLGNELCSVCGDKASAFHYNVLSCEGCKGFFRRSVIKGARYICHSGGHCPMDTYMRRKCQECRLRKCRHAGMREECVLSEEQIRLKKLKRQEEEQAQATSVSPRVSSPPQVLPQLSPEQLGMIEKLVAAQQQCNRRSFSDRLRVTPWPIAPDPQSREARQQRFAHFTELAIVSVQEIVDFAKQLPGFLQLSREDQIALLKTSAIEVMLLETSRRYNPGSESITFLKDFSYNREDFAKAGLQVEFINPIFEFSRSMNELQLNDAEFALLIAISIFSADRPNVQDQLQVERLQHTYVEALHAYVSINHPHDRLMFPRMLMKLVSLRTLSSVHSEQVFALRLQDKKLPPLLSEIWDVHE

[4] = target: T2, Oxysterols receptor LXR-beta (Rattus norvegicus); test: Transactivation of rat LXRbeta expressed in HEK293FT cells co-expressing RXR at 5 uM measured after 14 to 18 hrs by dual-luciferase reporter gene assay; assay type: cell-based
[5] = target: T2, Oxysterols receptor LXR-beta (Rattus norvegicus); test: Transactivation of rat LXRbeta expressed in HEK293FT cells at 5 uM measured after 14 to 18 hrs by dual-luciferase reporter gene assay; assay type: cell-based
[6] = Ratio of compound effect for transactivation of rat LXRalpha expressed in HEK293FT cells to compound effect for transactivation of rat LXRbeta expressed in HEK293FT cells

Compound	EC50 ([1]; read-out: EC50)	Efficacy [2]	Activity [5]	also measured
C[C@H](C[C@H]1CCN(C)C1=O)[C@H]1CC[C@H]2[C@@H]3CC=C4C[C@@H](O)CC[C@]4(C)[C@H]3CC[C@]12C	1290 nM			
CCN(C)C(=O)C(C)C[C@@H](C)[C@H]1CC[C@H]2[C@@H]3CC=C4C[C@@H](O)CC[C@]4(C)[C@H]3CC[C@]12C (stereo in doubt; 10) [listing 1 of 2 here]		39%		
CC(C)N(C)C(=O)CC[C@@H](C)[C@H]1CC[C@H]2[C@@H]3CC=C4C[C@@H](O)CC[C@]4(C)[C@H]3CC[C@]12C	623 nM	109%		Activity [3]: Active; Activity [4]: Active
CCN(C)C(=O)C(C)C[C@@H](C)[C@H]1CC[C@H]2[C@@H]3CC=C4C[C@@H](O)CC[C@]4(C)[C@H]3CC[C@]12C (stereo in doubt; 11) [listing 1 of 2 here]		65%		
CC(C)NC(=O)CC[C@@H](C)[C@H]1CC[C@H]2[C@@H]3CC=C4C[C@@H](O)CC[C@]4(C)[C@H]3CC[C@]12C	862 nM	85%	Active	
C[C@H](CCC(=O)N(C)C)[C@H]1CC[C@H]2[C@@H]3CC=C4C[C@@H](O)CC[C@]4(C)[C@H]3CC[C@]12C	124 to 464 nM	100%	Active	
CCN(CC)C(=O)CC[C@@H](C)[C@H]1CC[C@H]2[C@@H]3CC=C4C[C@@H](O)CC[C@]4(C)[C@H]3CC[C@]12C	344 nM	211%	Active	Activity [3]: Active; Activity [4]: Active
CCN(C)C(=O)C(C)C[C@@H](C)[C@H]1CC[C@H]2[C@@H]3CC=C4C[C@@H](O)CC[C@]4(C)[C@H]3CC[C@]12C (stereo in doubt; 11) [listing 2 of 2 here]	1990 nM			
CCN(C)C(=O)CC[C@@H](C)[C@H]1CC[C@H]2[C@@H]3CC=C4C[C@@H](O)CC[C@]4(C)[C@H]3CC[C@]12C	786 nM	108%		Activity [3]: Active; Activity [4]: Active
CCN1CCC[C@@H](C[C@@H](C)[C@H]2CC[C@H]3[C@@H]4CC=C5C[C@@H](O)CC[C@]5(C)[C@H]4CC[C@]23C)C1=O	643 nM	62%		
C[C@H](C[C@@H]1CCN(C)C1=O)[C@H]1CC[C@H]2[C@@H]3CC=C4C[C@@H](O)CC[C@]4(C)[C@H]3CC[C@]12C				EC50 [1]: Not Active
O=S(=O)(c1ccccc1)N(CC(F)(F)F)c1ccc(C(O)(C(F)(F)F)C(F)(F)F)cc1		98%		
C[C@H](C[C@H]1CCCN(C)C1=O)[C@H]1CC[C@H]2[C@@H]3CC=C4C[C@@H](O)CC[C@]4(C)[C@H]3CC[C@]12C	239 nM			
CC(C)N(C(=O)CC[C@@H](C)[C@H]1CC[C@H]2[C@@H]3CC=C4C[C@@H](O)CC[C@]4(C)[C@H]3CC[C@]12C)C(C)C	1110 nM	148%	Active	Activity [3]: Active; Ratio [6]: 2; Activity [4]: Active
CCN(C)C(=O)C(C)C[C@@H](C)[C@H]1CC[C@H]2[C@@H]3CC=C4C[C@@H](O)CC[C@]4(C)[C@H]3CC[C@]12C (stereo in doubt; 10) [listing 2 of 2 here]	3900 nM			
C[C@H](CCC(=O)N1CCCC1)[C@H]1CC[C@H]2[C@@H]3CC=C4C[C@@H](O)CC[C@]4(C)[C@H]3CC[C@]12C	165 nM	99%	Active	
C[C@H](C[C@@H]1CCCCN(C)C1=O)[C@H]1CC[C@H]2[C@@H]3CC=C4C[C@@H](O)CC[C@]4(C)[C@H]3CC[C@]12C	462 nM	80%		
C[C@H](CCC(=O)N1CCCCC1)[C@H]1CC[C@H]2[C@@H]3CC=C4C[C@@H](O)CC[C@]4(C)[C@H]3CC[C@]12C	127 nM	134%	Active	
CCCN(C)C(=O)CC[C@@H](C)[C@H]1CC[C@H]2[C@@H]3CC=C4C[C@@H](O)CC[C@]4(C)[C@H]3CC[C@]12C	1020 nM	102%		Activity [3]: Active; Activity [4]: Active
C[C@H](C[C@@H]1CCCN(C)C1=O)[C@H]1CC[C@H]2[C@@H]3CC=C4C[C@@H](O)CC[C@]4(C)[C@H]3CC[C@]12C				EC50 [1]: Not Active
